In BindingDB's records for doi:10.1016/j.ejmech.2019.111626 (University of Illinois At Chicago, 2019):
pEC50: −log10 of the molar value.

Biological target: 5-hydroxytryptamine receptor 2A (Homo sapiens, UniProt P28223)
Assay: Agonist activity at recombinant human 5HT2A receptor expressed in Flp-In-293 cells assessed as increase in calcium influx measured for 300 secs by Fluo-4 dye based FLIPR assay

Chain of 5-hydroxytryptamine receptor 2A (P28223 whole entry): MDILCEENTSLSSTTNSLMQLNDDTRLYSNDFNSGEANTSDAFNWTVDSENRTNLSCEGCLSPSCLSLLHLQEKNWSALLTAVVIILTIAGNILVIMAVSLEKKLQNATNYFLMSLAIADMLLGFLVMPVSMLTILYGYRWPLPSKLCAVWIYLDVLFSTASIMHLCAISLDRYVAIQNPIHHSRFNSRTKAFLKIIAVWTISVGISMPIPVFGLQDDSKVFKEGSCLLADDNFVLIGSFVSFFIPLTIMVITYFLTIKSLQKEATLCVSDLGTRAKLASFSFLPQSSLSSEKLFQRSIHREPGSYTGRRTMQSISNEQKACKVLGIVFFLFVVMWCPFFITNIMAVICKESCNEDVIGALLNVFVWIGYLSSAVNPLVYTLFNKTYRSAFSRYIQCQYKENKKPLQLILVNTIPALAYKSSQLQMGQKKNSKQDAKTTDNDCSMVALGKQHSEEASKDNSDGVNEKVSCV

**Q.** `NC[C@H]1C[C@]1(F)c1cccc(F)c1` was tested. Which pEC50 did it give?
**A.** The pEC50 was 8.57.
